Experimental data taken from ChEMBL document CHEMBL6177945, “Dyad System of BOAHY-BODIPY Conjugates as Novel Photoswitchable Photosensitizers for Photodynamic Therapy” (J Med Chem, 2025).
The source made the active and inactive calls. The calls are words filed in the database; no cut-off is given here.

Legend:
[1] = tested on: HeLa; test: Photocytotoxicity against human HeLa cells at 10 uM incubated with compound for 30 mins under 365 nm UV light for 1 mins and measured after 20 hrs post-illumination by MTT assay; type: functional, cell-based; settings: time 20.51 hrs
[2] = Phototoxicity in human HeLa cells assessed as cell viability under white LED light for 10 mins; type: functional, cell-based; settings: light or radiation study
[3] = Induction of type-1 ROS generation in PBS assessed as increase in superoxide anion radical by measuring increase in DHR123 fluorescence intensity at 10 uM irradiated with 450 to 800 nm 40.8 mW cm^-2 light up to 10 mins by DHR123 fluorescence based analysis; type: functional
[4] = Induction of type-II ROS generation in PBS assessed as increase in singlet oxygen by measuring ABDA absorption at 20 uM irradiated with 450 to 800 nm 40.8 mW cm^-2 light up to 10 mins by ABDA based UV-vis absorption spectrophotometric analysis; type: functional
[5] = tested on: HeLa; test: Photocytotoxicity against human HeLa cells at 10 uM incubated with compound for 30 mins under 365 nm UV light for 5 mins followed white LED exposure for 10 mins and measured after 20 hrs post-illumination by MTT assay; type: functional, cell-based; settings: time 20.75 hrs
[6] = tested on: HeLa; test: Cytotoxicity against human HeLa cells up to 100 uM incubated for 4 hrs by MTT assay; type: toxicity, cell-based
[7] = tested on: HeLa; test: Photocytotoxicity in human HeLa cells at 10 uM incubated for 30 mins irradiated with 450 to 800 nm 40.8 mW cm^-2 white LED light and measured after 20 hrs by MTT assay; type: functional, cell-based; settings: time 20.5 hrs
[8] = Induction of type-II ROS generation in PBS assessed as increase in singlet oxygen by measuring ABDA absorption under white lamp exposure for 10 mins and UV light for 15 mins followed by white lamp exposure for another 10 mins by ABDA based UV-vis absorption spectrophotometric analysis; type: functional; settings: time 35.0 min
[9] = Induction of type-1 ROS generation in PBS assessed as increase in superoxide anion radical by measuring increase in DHR123 fluorescence intensity under white lamp exposure for 10 mins and UV light for 15 mins followed by white lamp exposure for another 10 mins by DHR123 fluorescence based analysis; type: functional; settings: time 35.0 min
[10] = tested on: HeLa; test: Upregulation of cellular redox metabolism related proteins in human HeLa cells under white light irradiation exposure by GO analysis; type: functional, cell-based
[11] = tested on: HeLa; test: Photocytotoxicity against human HeLa cells at 10 uM incubated with compound for 30 mins under 365 nm UV light for 1 mins followed white LED exposure for 2 mins and measured after 20 hrs post-illumination by MTT assay; type: functional, cell-based; settings: time 20.55 hrs
[12] = tested on: HeLa; test: Upregulation of ROS generation related proteins in human HeLa cells under white light irradiation exposure by GO analysis; type: functional, cell-based

Row | SMILES | Activity [3] | Activity [4] | Activity [5] | Activity [6] | further results
1 | CC1=C(I)C(C)=[N+]2C1=C(c1ccccc1)c1c(C)c(/C=[N+]3\N=C(c4ccccc4)O[B-]3(F)F)c(C)n1[B-]2(F)F | Active | Active |  |  | Activity [1]: Active; IC50 [2]: 3.38 µM
2 | CC1=CC(C)=[N+]2C1=C(c1ccccc1)c1c(C)c(/C=[N+]3/N=C(c4ccc([N+](=O)[O-])cc4)O[B-]3(F)F)c(C)n1[B-]2(F)F |  |  | Active |  | 
3 | CC1=C(I)C(C)=[N+]2C1=C(c1ccccc1)c1c(C)c(/C=[N+]3\N=C(c4ccc([N+](=O)[O-])cc4)O[B-]3(F)F)c(C)n1[B-]2(F)F | Active |  |  |  | 
4 | COc1ccc(C2=N/[N+](=C\c3c(C)c4n(c3C)[B-](F)(F)[N+]3=C(C)C=C(C)C3=C4c3ccccc3)[B-](F)(F)O2)cc1 | Active | Not active; Slight Changes In Abda Absorption Observed |  | Non-toxic | Activity [7]: Active
5 | CC1=CC(C)=[N+]2C1=C(c1ccccc1)c1c(C)c(/C=[N+]3\N=C(c4ccc([N+](=O)[O-])cc4)O[B-]3(F)F)c(C)n1[B-]2(F)F | Active | Not active; Slight Changes In Abda Absorption Observed |  | Non-toxic | 
6 | CC1=C(/C=[N+]2\N=C(c3ccccc3)O[B-]2(F)F)C(C)=[N+]2C1=C(c1ccccc1)c1c(C)c(/C=[N+]3\N=C(c4ccccc4)O[B-]3(F)F)c(C)n1[B-]2(F)F | Active |  | Active | Non-toxic | 
7 | CC1=CC(C)=[N+]2C1=C(c1ccccc1)c1c(C)c(/C=[N+]3/N=C(c4ccccc4)O[B-]3(F)F)c(C)n1[B-]2(F)F |  |  | Active |  | Activity [8]: Active; Activity [9]: Active
8 | COc1ccc(C2=N/[N+](=C/c3c(C)c4n(c3C)[B-](F)(F)[N+]3=C(C)C=C(C)C3=C4c3ccccc3)[B-](F)(F)O2)cc1 |  |  | Active |  | Activity [8]: Active; Activity [9]: Active
9 | CC1=CC(C)=[N+]2C1=C(c1ccccc1)c1c(C)c(/C=[N+]3\N=C(c4ccccc4)O[B-]3(F)F)c(C)n1[B-]2(F)F | Active | Not active; Slight Changes In Abda Absorption Observed |  | Non-toxic | Activity [7]: Active
10 | COc1ccc(C2=N/[N+](=C\C3=C(C)C4=C(c5ccccc5)c5c(C)c(/C=[N+]6\N=C(c7ccc(OC)cc7)O[B-]6(F)F)c(C)n5[B-](F)(F)[N+]4=C3C)[B-](F)(F)O2)cc1 |  |  | Active | Non-toxic | 
11 | COc1ccc(C2=N/[N+](=C\c3c(C)c4n(c3C)[B-](F)(F)[N+]3=C(C)C(I)=C(C)C3=C4c3ccccc3)[B-](F)(F)O2)cc1 | Active |  |  |  | Activity [10]: Active; Activity [11]: Active; Activity [12]: Active
